Experiments:
[1] = test system: metastatic melanoma; experiment: TH-302 monotherapy in patients with metastatic melanoma; assay type: in vivo, human
Description: As noted, TH-302 has shown benefit in patients with metastatic melanoma. The historical response rate in first-line metastatic melanoma is about 10%, so the results of treatment with TH-302 are quite remarkable. Eleven subjects with metastatic melanoma have been treated with TH-302 monotherapy at initial doses of 575 mg/m^2 to 670 mg/m^2 as part of a 3 consecutive week dosing regimen repeated every 4 weeks. RECIST tumor assessments have been performed for eight subjects. […] Four of the eight subjects continued on-study for additional dosing cycles. Two of the three subjects with a partial response continued on-study through at least Cycle 3 and Cycle 7. The other subject discontinued with clinical deterioration associated with neurological decline from brain metastases.
A patient suffering from a primary melanoma (a skin cancer) that had metastasized to liver and lung was treated as follows. TH-302 was administered to the patient at an amount of 670 mg/m^2 using a 4 week (28 day) dosing cycle: TH-302 was administered once every week for 3 weeks, on days 1, 8, and 15, followed by a week of no TH-302 administration. The patient was administered 2 cycles of TH-302 and assessed by a CT scan.
Enrollment in the study was expanded at the MTD in patients with metastatic melanoma. TH-302 was administered intravenously over 30-60 minutes on Days 1, 8 and 15 of a 28-day cycle. Eligible patients had ECOG≦1, at least one target lesion by RECIST, and acceptable hematologic, liver, and renal function. Patients with symptomatic brain metastases were excluded unless previously treated and well controlled for at least 3 months. Nine patients with metastatic melanoma have been treated in the study. The median age was 70 (range 23-78) with 5 females and 4 males and ECOG 0/1 in 4/5 patients. […] Metastatic sites included liver in 7 patients and lung in 6 patients. All patients had received at least one prior systemic chemotherapeutic regimen. Two serious adverse events, seizures and ascites, were reported; neither was considered related to study drug. Skin adverse events were reported in 8 patients and mucosal adverse events were reported in 4 patients including one grade 3 event. Myelosuppression was not significant, with one event of grade 3/4 neutropenia and anemia and no events of grade 3/4 thrombocytopenia. Eight patients have had RECIST tumor assessments.

[2] = test system: HT1080 human fibrosarcoma cells; experiment: HT1080 ectopic xenograft, TH-302/doxorubicin dosing schedules; assay type: in vivo, nude mice; details: single agent, TH-302 100 mg/kg ip 1/wkx2wks or Dox 4 mg/kg iv 1/wkx2wks
Description: Anti-tumor activity was evaluated by tumor growth delay (TGD) and tumor growth inhibition (TGI). Body weight change, gross and microscopic assessment of tissue changes, and hematologic assays served for toxicity assessment. Testing in these models was conducted generally as follows. 1×10^6 (H460 human non-small cell lung cancer or HT1080 human fibrosarcoma cells) or 3×10^6 (PC-3 human prostate cancer cells) were implanted in the subcutaneous space of the right flank to obtain ectopic xenograft models. Randomization and dosing was initiated when tumors reached a certain size (100-150 mm^3). API grade of TH-302 was used in all experiments while docetaxel, gemcitabine, cisplatin, pemetrexed, and doxorubicin were purchased from commercial sources.
The H460 cells were prepared in 30% Matrigel and 70%. RPMI1640. Mice were anesthetized by isoflurane and were implanted subcutaneously with 1×10^6 cells (in 200 μl) at the flank position. We selected 110 mice bearing similar size tumors (˜100 mm^3) for the study. Mice bearing similar tumor size were randomly assigned into different groups. Treatment started on day 1 (7 days after tumor implantation) except as noted. TH-302 was administered intraperitoneally (IP) at 150 mg/kg, and docetaxel was administered intravenously (IV) at 10 mg/kg. Animals were observed daily and tumor measurements and body weights recorded twice weekly.
In a study conducted substantially as described above except the cells implanted were HT1080 human fibrosarcoma cells and 1×10^6 cells were implanted and mice were randomized into separate groups when their […]

[3] = test system: H460 NSCLC; experiment: H460 ectopic tumor model, TH-302 with carboplatin; assay type: in vivo, nude mice
Description: Anti-tumor activity was evaluated by tumor growth inhibition (TGI) and tumor growth delay (TGD). Body weight change, gross and microscopic assessment of tissue changes, and hematologic assays served for toxicity assessment.
Testing in these models was conducted generally as follows. 1×10^6 H460 human non-small cell lung cancer or HT1080 human fibrosarcoma cells were implanted in the subcutaneous space of the right flank to obtain ectopic xenograft models. For the orthotopic pancreatic model, red-fluorescent protein (RFP) expressing MIA PaCa2 tumors were surgically implanted on the surface of the pancreas. The prostate metastatic model was created by the intraventricular injection of 3×10^6 luciferase-expressing PC-3 cells. […] API grade of TH-302 was used in all experiments while docetaxel, gemcitabine, doxorubicin and pemetrexed were purchased from commercial sources.
Inhibition of tumor growth after administration of TH-302 and carboplatin was greater than for either drug individually in an ectopic tumor model using H460 cells.

[4] = test system: Calu6 NSCLC; experiment: Calu-6 ectopic tumor model, TH-302 with doxorubicin; assay type: in vivo, nude mice; details: Dox 4 mg/kg IV Q7Dx2; TH-302 50 mg/kg IP QDx5/wkx2wks; alone or combined
[5] = test system: HT29 colon cancer; experiment: HT-29 ectopic tumor model, TH-302 with 5FU; assay type: in vivo, nude mice
[6] = 575-670 mg/m^2, weekly x3 every 4 weeks, eight subjects assessed
[7] = expansion at MTD, 8 patients assessed
[8] = one patient, 670 mg/m^2, 2 cycles, CT scan
[9] = Carboplatin 20 mg/kg IV Q7Dx2, TH-302 100 mg/kg IP Q7Dx2, alone or combined
[10] = TH-302 150 mg/kg IP Q7Dx2, alone or + Carboplatin 20 mg/kg IV Q7Dx2
[11] = 5-FU 50 mg/kg IV Q3Dx4, TH-302 150 mg/kg IP Q7Dx3, alone or combined
[12] = TH-302 100 mg/kg IP Q3Dx5, alone or + 5-FU 50 mg/kg IV Q3Dx4

Cn1c(COP(=O)(NCCBr)NCCBr)cnc1[N+](=O)[O-] [TH-302, (2-bromoethyl)({[(2-bromoethyl)amino][(2-nitro-3-methylimidazol-4-yl)methoxy]phosphoryl})amine]
Partial responses (RECIST) [1, 6]: Three of the eight subjects
Stable disease (RECIST) [1, 6]: three of eight subjects
RECIST partial responses ([1]; expansion at MTD, Days 1, 8, 15 of 28-day cycle, 8 patients assessed): 37%
Ongoing stable disease after 2 months of therapy [1, 7]: 38%
Progressive disease [1, 7]: 25%
Mucosal adverse events ([1]; nine patients treated): 4 patients
Skin adverse events ([1]; nine patients treated): 8 patients
Decrease in SLD of target lesions [1, 8]: 53%
Reduction in area of cancer in lung and liver [1, 8]: over 50%
Days to 500 mm^3 [2]: 22 days
T/C [2]: 25.3%
TGD500, Days (vs. vehicle) [2]: 10 days
TGI [2]: 74.7%
Tn (tumor volume on Day n) [2]: 334.66
Days to 500 mm^3 [3, 9]: 13.5 days
T/C [3, 9]: 56.1%
TGD500, Days (vs. vehicle) [3, 9]: 4 days
TGI [3, 9]: 43.9%
Tn (tumor volume on Day n) [3, 9]: 706.0
Days to 500 mm^3 [3, 10]: 14.5 days
T/C [3, 10]: 50.3%
TGD500, Days (vs. vehicle) [3, 10]: 5 days
TGI [3, 10]: 49.7%
Tn (tumor volume on Day n) [3, 10]: 641.6
Days to 500 mm^3 [4]: 29 days
Days to 1000 mm^3 [4]: 39 days
T/C [4]: 59.2%
TGD500, Days (vs. vehicle) [4]: 11 days
TGD1000, Days (vs. vehicle) [4]: 8 days
TGI [4]: 40.8%
Tn (tumor volume on Day n) [4]: 695.67
Days to 500 mm^3 [5, 11]: 28 days
Days to 1000 mm^3 [5, 11]: 46 days
T/C [5, 11]: 48.4%
TGD500, Days (vs. vehicle) [5, 11]: 6 days
TGD1000, Days (vs. vehicle) [5, 11]: 14 days
TGI [5, 11]: 51.6%
Tn (tumor volume on Day n) [5, 11]: 565.70
Days to 500 mm^3 [5, 12]: 29 days
Days to 1000 mm^3 [5, 12]: 41 days
T/C [5, 12]: 52.0%
TGD500, Days (vs. vehicle) [5, 12]: 7 days
TGD1000, Days (vs. vehicle) [5, 12]: 9 days
TGI [5, 12]: 48.0%
Tn (tumor volume on Day n) [5, 12]: 580.55

— patent US8946275B2, “Treatment of cancer using hypoxia activated prodrugs” (Threshold Pharmaceuticals, Inc., priority 2008, dated 2015)
